Assay results: patent USRE48253E1, “Methotrexate adjuvants to reduce toxicity and methods for using the same” (Tosk, Inc., priority 2008, dated 2020)
“Also recorded” adds a separate entry of the source. Read-outs that look alike come from different tables or passages of the source.

Experiments:
[1] = target: mouse small intestinal UPase enzyme (Mus musculus, UniProt P52624); test: UPase inhibition in mouse small intestinal tissue homogenate (HPLC of uracil); format: biochemical
Procedure: A range of TK-112690 doses were studied for the their ability to prevent metabolic breakdown of uridine through the in vitro inhibition of mouse and human small intestinal UPase enzyme. UPase activity was determined by HPLC analysis using UV detection of uracil concentration (UPase catabolizes uridine into uracil and ribose-1-phosphate). The UPase enzyme material was prepared from homogenized mouse and human being small intestinal tissue. TK-112690 was dissolved in water (50 mg/ml) and analyzed for UPase inhibition in aqueous solution containing 5 mM uridine, 0.01 M Tris, 0.01 M phosphate, 1 mM EDTA, and 1 mM DTT. Reactions were performed at 37° C. at pH of 7.3.
The aim of this study was to evaluate TK-112690 […] as an inhibitor of uridine phosphorylase (UPase) enzyme activity. The range of TK-112690 doses studied for ability to prevent metabolic breakdown of uridine, through the in vitro inhibition of mouse and human small intestinal UPase enzyme, was 0, 0.1, 0.5, 1, 5, 10, 50, 100, 500, 1000, 5000 and 10000 μM). Detection of UPase activity was determined by HPLC analysis using UV detection of uracil concentration (UPase catabolizes uridine into uracil and ribose-1-phosphate).
The UPase enzyme material was prepared from homogenized mouse and human being small intestinal tissue. TK-112690 was dissolved in water (50 mg/ml) and analyzed for UPase inhibition in aqueous solution containing 5 mM uridine, 0.01 M Tris, 0.01 M phosphate, 1 mM EDTA, and 1 mM DTT. Reactions were performed at 37° C. at pH of 7.3.
TK-11260 inhibition of mouse and human UPase was analyzed by reverse phase HPLC using UV detection. HPLC analysis was performed at ambient temperature with a Water 2695 Alliance system equipped with a C18 ECONOSIL 5 U ALLtech column. 20 μl of UPase reaction samples were auto-injected onto column. Mobile phase consisted of water eluting for first 2.5 ml and acetonitrile gradient to 100% in 12.5 ml (flow rate 0.5 ml/min). The outlet fluent was monitored by UV absorption in the range of 240-320 nm. UPase enzymatic activity was based on the AUC of the uracil peaks.

AS283 cells = test: Cell Culture Study II: MTX cytotoxicity, CellTiter-Glo; format: cell-based, human; settings: TK-112690 1, 10, 100 μM with MTX 0.01-100 μM, 72 hours
Procedure: In this study, AS283 cells were grown in RPMI-1640 supplemented with L-glutamine dipeptide, sodium pyruvate, HEPES, and 10% FBS. AS283 cells were used to seed three 96-well plates with 10,000 cells/well in a total volume of 50 μL. Medium alone wells were seeded 100 μL medium. Plates were incubated overnight. The following day, 25 μL of the TK-112690 and MTX stock solutions were added to the appropriate wells. TK-112690 was added first, followed by MTX in all wells. 25 μL of vehicle was added to TK-112690 alone wells. 25 μL of vehicle and 25 μL medium were added to vehicle control wells, and 50 μL medium was added to cell control wells. Cell viability was measured using CellTiter-Glo and DOX (10 μM) was used as a reference standard. The plates were incubated at 37° C., 5% CO2 for 72 hours then removed from the incubator and placed on the bench at room temperature for 30 min. The plates were not stacked or shaken. […] Luminescence was recorded on TriLux. […]
AS283 cells were grown in RPMI-1640 supplemented with L-glutamine dipeptide, sodium pyruvate, HEPES, and 10% FBS. […] Cell viability was measured using CellTiter-Glo and DOX (10 μM) was used as a reference standard.
The plates were incubated at 37° C., 5% CO2 for 72 hours then removed from the incubator and placed on the bench at room temperature for 30 min. […] Luminescence was recorded on TriLux.

Sequence of mouse small intestinal UPase enzyme (P52624 whole entry, looked up): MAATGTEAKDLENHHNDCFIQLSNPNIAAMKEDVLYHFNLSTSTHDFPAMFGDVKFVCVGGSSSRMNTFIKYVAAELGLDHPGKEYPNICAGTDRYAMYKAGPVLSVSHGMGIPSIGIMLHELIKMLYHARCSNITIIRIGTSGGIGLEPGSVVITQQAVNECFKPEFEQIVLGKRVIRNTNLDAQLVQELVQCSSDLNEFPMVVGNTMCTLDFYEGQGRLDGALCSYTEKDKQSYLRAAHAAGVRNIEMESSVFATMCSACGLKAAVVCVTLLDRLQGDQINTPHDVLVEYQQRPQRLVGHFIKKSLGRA

## Cc1cn2c(nc1=O)O[C@H]1[C@H](O)[C@@H](CO)O[C@H]12 [TK-112690, 2,2′-anhydro-5-methyluridine]
[1]; 5 mM uridine, 37° C., pH 7.3, read-out: IC50, mouse small intestinal (murine) UPase
  IC50: 12.5 µM
[1]; Table 3, murine UPase, test method of Experiment IX, read-out: UPase IC50
  IC50: < 100 µM
AS283 cells
  effect on antiproliferative activity (cytotoxicity) of MTX: did not diminish the cytotoxicity of MTX; also recorded: not altered
